Calls of active or inactive are those of the source. The rule behind the calls is not given here.
How the values were obtained:
[1] = system: Pseudomonas aeruginosa; test: Antimicrobial activity against Pseudomonas aeruginosa SR24 in presence of human apo-transferrin by broth microdilution method; assay type: functional
[2] = system: Pseudomonas aeruginosa; test: Antimicrobial activity against AmpC overproducing Pseudomonas aeruginosa SR24-12 in presence of human apo-transferrin by broth microdilution method; assay type: functional
[3] = system: Pseudomonas aeruginosa; test: Antimicrobial activity against IMP-1 producing Pseudomonas aeruginosa SR27001 in presence of human apo-transferrin by broth microdilution method; assay type: functional
[4] = system: Pseudomonas aeruginosa; test: Antimicrobial activity against VIM-2 producing Pseudomonas aeruginosa SBRKM-28 in presence of human apo-transferrin by broth microdilution method; assay type: functional
[5] = system: Pseudomonas aeruginosa; test: Antimicrobial activity against IMP-1 producing Pseudomonas aeruginosa SR27060 in presence of human apo-transferrin by broth microdilution method; assay type: functional
[6] = system: Pseudomonas aeruginosa; test: Antimicrobial activity against Pseudomonas aeruginosa 27060deltaR1 harboring deletion of R1 plasmid in presence of human apo-transferrin by broth microdilution method; assay type: functional
[7] = system: Stenotrophomonas maltophilia; test: Antimicrobial activity against L-1 producing Stenotrophomonas maltophilia SR21970 in presence of human apo-transferrin by broth microdilution method; assay type: functional
[8] = system: Acinetobacter baumannii; test: Antimicrobial activity against OXA-23/OXA-58 producing Acinetobacter baumannii SR27323 in presence of human apo-transferrin by broth microdilution method; assay type: functional
[9] = system: Klebsiella pneumoniae; test: Antimicrobial activity against KPC-2 producing Klebsiella pneumoniae ATCC BAA-1705 in presence of human apo-transferrin by broth microdilution method; assay type: functional
[10] = system: Escherichia coli; test: Antimicrobial activity against SHV-4 producing Escherichia coli ATCC BAA-200 in presence of human apo-transferrin by broth microdilution method; assay type: functional
[11] = system: Pseudomonas aeruginosa; test: Antibacterial activity against Pseudomonas aeruginosa SR27001 infected in Jcl:ICR mouse systemic infection model assessed as increase in mouse survival rate administered iv 1 to 5 hrs post infection measured over 7 days; assay type: functional
[12] = Iron chelating activity in presence of cetyltrimethylammonium bromide at pH 5.5 by chromeazurol B dye based spectrophotometric method

Compound	MIC [1] [µg/mL]	MIC [2] [µg/mL]	MIC [3] [µg/mL]	MIC [4] [µg/mL]	MIC [5] [µg/mL]	MIC [6] [µg/mL]	MIC [7] [µg/mL]	MIC [8] [µg/mL]	MIC [9] [µg/mL]	MIC [10] [µg/mL]	ED50 [11] [mg/kg]	Activity [12]
CC(C)(O/N=C(\C(=O)N[C@@H]1C(=O)N2C(C(=O)[O-])=C(C[N+](C)(C)[C@@H]3CCN(C(=O)c4ccc(O)c(O)c4Cl)C3)CS[C@H]12)c1csc(N)n1)C(=O)O	0.25	0.5	2	0.25	2	1	1	1	0.25	2	5.48	–
CC(C)(O/N=C(\C(=O)N[C@@H]1C(=O)N2C(C(=O)[O-])=C(C[N+]3(CCNC(=O)c4ccc(O)c(O)c4)CCCC3)CS[C@H]12)c1csc(N)n1)C(=O)O	0.125	1	2	0.25	2	2	2	16	0.5	2	–	Active
CC(C)(O/N=C(\C(=O)N[C@@H]1C(=O)N2C(C(=O)[O-])=C(C[N+]3(CCNC(=O)c4ccc(O)c(O)c4F)CCCC3)CS[C@H]12)c1csc(N)n1)C(=O)O	0.125	0.125	2	–	1	1	0.25	0.5	≤ 0.031	0.5	5.48	–
CO/N=C(\C(=O)N[C@@H]1C(=O)N2C(C(=O)[O-])=C(C[N+]3(C)CCCC3)CS[C@H]12)c1csc(N)n1	0.5	16	> 64	16	> 64	16	64	16	32	4	> 100	–
CC(C)(O/N=C(\C(=O)N[C@@H]1C(=O)N2C(C(=O)[O-])=C(C[N@+]3(C)[C@@H]4CC[C@H]3C[C@@H](NC(=O)c3ccc(O)c(O)c3Cl)C4)CS[C@H]12)c1csc(N)n1)C(=O)O	0.25	0.5	0.5	0.063	1	0.5	1	1	0.063	2	10.5	–
CC(C)(O/N=C(\C(=O)N[C@@H]1C(=O)N2C(C(=O)[O-])=C(C[N+]34CCC(CNC(=O)c5ccc(O)c(O)c5Cl)(CC3)CC4)CS[C@H]12)c1csc(N)n1)C(=O)O	0.25	0.5	2	0.125	4	1	0.25	1	0.063	2	9.42	–
CC(C)(O/N=C(\C(=O)N[C@@H]1C(=O)N2C(C(=O)[O-])=C(C[N+]3(CCNC(=O)c4cc(=O)c(O)cn4O)CCCC3)CS[C@H]12)c1csc(N)n1)C(=O)O	0.125	0.5	4	0.063	4	1	0.125	0.5	0.063	1	> 30	–
CC(C)(O/N=C(\C(=O)N[C@@H]1C(=O)N2C(C(=O)[O-])=C(C[N+]3(CCNC(=O)c4cccc(O)c4O)CCCC3)CS[C@H]12)c1csc(N)n1)C(=O)O	0.063	0.25	4	–	8	0.5	1	1	0.063	2	–	Active
CC(C)(O/N=C(\C(=O)N[C@@H]1C(=O)N2C(C(=O)[O-])=C(C[N+]3(CCNC(=O)c4cc(Cl)c(O)c(O)c4Cl)CCCC3)CS[C@H]12)c1csc(N)n1)C(=O)O	0.125	0.25	0.5	0.063	2	0.5	0.125	0.25	0.031	0.5	–	Active
CC(C)(O/N=C(\C(=O)N[C@@H]1C(=O)N2C(C(=O)[O-])=C(C[N+]3(CCNC(=O)c4ccc(O)c(O)c4O)CCCC3)CS[C@H]12)c1csc(N)n1)C(=O)O	1	2	32	–	16	4	8	32	1	32	–	Active
CC(C)(O/N=C(\C(=O)N[C@@H]1C(=O)N2C(C(=O)[O-])=C(C[N+]3(CCNC(=O)c4cc(O)c(O)cc4Cl)CCCC3)CS[C@H]12)c1csc(N)n1)C(=O)O	0.063	0.125	2	–	2	1	0.25	1	≤ 0.031	2	10.2	–
Cc1c(C(=O)NCC[N+]2(CC3=C(C(=O)[O-])N4C(=O)[C@@H](NC(=O)/C(=N\OC(C)(C)C(=O)O)c5csc(N)n5)[C@H]4SC3)CCCC2)ccc(O)c1O	0.5	1	8	–	8	2	1	8	0.25	8	–	Active
CC(C)(O/N=C(\C(=O)N[C@@H]1C(=O)N2C(C(=O)[O-])=C(C[N+]3(CCNC(=O)c4cc(O)c(O)c(Cl)c4)CCCC3)CS[C@H]12)c1csc(N)n1)C(=O)O	0.063	0.125	1	–	1	0.25	0.25	0.25	≤ 0.031	0.5	10.2	–
CC(C)(O/N=C(\C(=O)N[C@@H]1C(=O)N2C(C(=O)[O-])=C(C[N@+]34CCC[C@H]3CN(C(=O)c3ccc(O)c(O)c3Cl)CC4)CS[C@H]12)c1csc(N)n1)C(=O)O	0.25	0.5	0.5	0.25	4	1	0.5	2	0.063	2	–	–
C[C@@H](O/N=C(\C(=O)N[C@@H]1C(=O)N2C(C(=O)[O-])=C(C[N+]3(CCNC(=O)c4ccc(O)c(O)c4Cl)CCCC3)CS[C@H]12)c1csc(N)n1)C(=O)O	0.25	0.5	1	0.125	2	1	0.5	1	0.063	1	5.48	–
Nc1nc(/C(=N/OCC(=O)O)C(=O)N[C@@H]2C(=O)N3C(C(=O)[O-])=C(C[N+]4(CCNC(=O)c5ccc(O)c(O)c5Cl)CCCC4)CS[C@H]23)cs1	0.125	0.5	2	0.125	4	2	1	0.5	0.25	32	9.84	–

Source: ChEMBL document CHEMBL4152326 (2018)
